For series [1], the target named is T1, σ2 receptor (Rattus norvegicus, UniProt Q5U3Y7).
T1 construct: The thawed rat liver membrane preparation; tissue Harlan-Winkelmann, Borchen, Germany; host or cells: rat liver membrane homogenate
T1 sequence (Q5U3Y7 1-176): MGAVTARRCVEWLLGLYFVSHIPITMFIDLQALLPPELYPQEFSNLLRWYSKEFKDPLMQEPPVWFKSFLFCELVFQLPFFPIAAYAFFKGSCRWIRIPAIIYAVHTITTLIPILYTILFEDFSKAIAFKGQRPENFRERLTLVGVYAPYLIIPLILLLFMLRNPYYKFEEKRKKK
The series can be described thus: biochemical. The note with it: read-out: inhibition of the radioligand binding, σ2 Receptor.

For series [2], the target named is κ receptor (Cavia porcellus, UniProt P41144). The series can be described thus: κ receptor radioligand binding assay with [3H]U-69,593, guinea pig brain membranes.
Series [3] has as its target T2, σ1 receptor (Cavia porcellus, UniProt Q60492). The series can be described thus: σ1 receptor radioligand binding assay with [3H]-(+)-pentazocine, guinea pig brain membranes. The note with it: read-out: Ki ± SEM σ1 Receptor.
Series [4] has as its target T3, μ receptor (Cavia porcellus, UniProt A0ACM8Q262). Kind of series: μ receptor radioligand binding assay with [3H]DAMGO, guinea pig brain membranes.
Series [5] addresses T2, σ1 receptor. The following applies: [3H]-(+)-pentazocine, guinea pig brain membranes; cited from earlier work.
For series [6], the target named is T3, μ receptor. Set-up: method as in PMID 25062506. The note with it: [3H]DAMGO, guinea pig brain membranes; cited from earlier work.
Series [7] concerns the target T1, σ2 receptor. The following applies: read-out: Ki σ2 Receptor; [3H]DTG, rat liver membranes; cited from earlier work.
Series [8] concerns the target T4, δ receptor (Rattus norvegicus, UniProt P33533).
T4 construct: The thawed rat brain membrane preparation (about 75 μg of the protein) was incubated; tissue Harlan-Winkelmann, Borchen, Germany; host or cells: rat brain membrane homogenate
Set-up: method as in PMID 25062506. The following applies: test compound 1 μM, [3H]DPDPE, rat brain membranes; cited from earlier work.

Series [9] concerns the target human serum albumin (Homo sapiens, UniProt P02768). Kind of series: in vitro. The following applies: plasma.
The conditions of series [10]: mouse, microsomes, 1.5 h.
For series [11], the target named is T4, δ receptor. The series can be described thus: δ receptor radioligand binding assay with [3H]DPDPE, rat brain membranes. The following applies: read-out: inhibition of the radioligand binding, δ Receptor.
Series [12] is described as follows: physchem. The note with it: pH 7.4.

Like-named read-outs stand apart in the source and are kept apart here.

Sequence of κ receptor (P41144 whole entry): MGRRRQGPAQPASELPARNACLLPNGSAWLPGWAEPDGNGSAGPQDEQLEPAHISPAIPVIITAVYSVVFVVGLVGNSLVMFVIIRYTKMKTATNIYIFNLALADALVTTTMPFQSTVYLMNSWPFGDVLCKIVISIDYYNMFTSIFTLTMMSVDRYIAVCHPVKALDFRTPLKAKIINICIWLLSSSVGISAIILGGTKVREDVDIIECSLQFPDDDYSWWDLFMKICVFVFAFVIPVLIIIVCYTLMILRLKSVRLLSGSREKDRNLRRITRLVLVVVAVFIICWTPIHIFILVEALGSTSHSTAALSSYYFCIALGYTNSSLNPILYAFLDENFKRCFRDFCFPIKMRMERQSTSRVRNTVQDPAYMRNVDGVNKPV
T2 sequence (Q60492 whole entry): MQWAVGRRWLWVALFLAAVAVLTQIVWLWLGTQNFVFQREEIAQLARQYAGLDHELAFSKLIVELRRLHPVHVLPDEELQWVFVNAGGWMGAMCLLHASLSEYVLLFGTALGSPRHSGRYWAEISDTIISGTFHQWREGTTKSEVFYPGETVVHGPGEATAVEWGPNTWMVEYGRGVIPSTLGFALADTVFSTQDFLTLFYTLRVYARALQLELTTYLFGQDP
T3 sequence (A0ACM8Q262 1-400): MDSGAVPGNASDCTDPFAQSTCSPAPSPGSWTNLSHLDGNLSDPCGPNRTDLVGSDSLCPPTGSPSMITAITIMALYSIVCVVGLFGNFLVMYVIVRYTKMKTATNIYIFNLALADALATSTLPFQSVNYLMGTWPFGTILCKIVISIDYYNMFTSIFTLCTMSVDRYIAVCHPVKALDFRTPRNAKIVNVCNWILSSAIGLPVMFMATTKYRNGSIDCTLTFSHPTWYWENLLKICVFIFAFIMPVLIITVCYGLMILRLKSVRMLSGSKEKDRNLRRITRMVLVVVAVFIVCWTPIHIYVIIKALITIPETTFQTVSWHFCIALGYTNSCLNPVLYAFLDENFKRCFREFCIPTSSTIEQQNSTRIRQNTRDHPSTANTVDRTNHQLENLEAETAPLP
T4 sequence (P33533 whole entry): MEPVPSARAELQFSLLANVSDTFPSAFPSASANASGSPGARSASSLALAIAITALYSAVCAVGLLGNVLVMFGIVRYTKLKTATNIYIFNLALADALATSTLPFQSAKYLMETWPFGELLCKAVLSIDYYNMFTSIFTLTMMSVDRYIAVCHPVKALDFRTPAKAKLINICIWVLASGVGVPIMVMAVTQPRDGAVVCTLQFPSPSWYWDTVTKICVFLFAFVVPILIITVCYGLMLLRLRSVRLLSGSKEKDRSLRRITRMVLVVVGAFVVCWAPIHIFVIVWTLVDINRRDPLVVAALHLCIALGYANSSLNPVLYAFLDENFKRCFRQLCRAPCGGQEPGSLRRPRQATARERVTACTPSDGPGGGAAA
Sequence of human serum albumin (P02768 25-609): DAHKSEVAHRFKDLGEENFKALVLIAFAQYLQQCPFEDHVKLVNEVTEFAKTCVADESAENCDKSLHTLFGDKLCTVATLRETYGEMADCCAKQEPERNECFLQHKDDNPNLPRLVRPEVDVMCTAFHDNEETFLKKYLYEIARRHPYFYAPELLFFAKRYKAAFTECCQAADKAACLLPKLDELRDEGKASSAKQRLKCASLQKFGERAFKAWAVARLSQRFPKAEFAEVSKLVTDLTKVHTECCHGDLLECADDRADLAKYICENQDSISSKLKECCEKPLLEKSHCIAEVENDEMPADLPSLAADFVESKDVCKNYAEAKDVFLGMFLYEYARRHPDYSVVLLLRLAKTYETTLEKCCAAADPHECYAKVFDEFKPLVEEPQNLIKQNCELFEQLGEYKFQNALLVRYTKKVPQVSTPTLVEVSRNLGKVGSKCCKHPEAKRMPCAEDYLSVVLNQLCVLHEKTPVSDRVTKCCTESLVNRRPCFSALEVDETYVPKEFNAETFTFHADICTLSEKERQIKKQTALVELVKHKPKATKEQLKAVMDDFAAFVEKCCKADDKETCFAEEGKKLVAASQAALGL

As for `CC(C)(C)[Si](C)(C)O[C@@H]1C[C@@H]2[C@@H]([C@@H](N3CCCC3)C1)N(C(=O)Cc1ccc(Cl)c(Cl)c1)CCN2Cc1ccccc1` (racemic) [compound 13, 1-[(4aRS,6SR,8SR,8aRS)-4-Benzyl-6-(tert-butyldimethylsilyloxy)-8-(pyrrolidin-1-yl)-decahydroquinoxalin-1-yl]-2-(3,4-dichlorophenyl)ethan-1-one], the inhibition at 1 µM in series [1] came out at 7%; in [2] (read-out: inhibition of the radioligand binding, κ Receptor), 0%. The Ki in [3] turned out to be 0.487 µM.

[3H]-DAMGO [reference compound] displayed a Kd in [4] (guinea pig brain membrane preparation) of 0.00057 µM.

For `O=C(Cc1ccc(Cl)c(Cl)c1)N1CCN(Cc2ccccc2)C2CCCC(N3CCCC3)C21` (centres unmarked) [2a], the Ki in series [5] was 1.39 µM; in series [6], 3.9 µM; in series [7], 4.39 µM. Also, the “inhibition of the radioligand binding, δ Receptor” value in series [8] is 39%.

Regarding `O=C(Cc1ccc(Cl)c(Cl)c1)N1CCN(Cc2ccccc2)[C@@H]2C[C@@H](O)C[C@H](N3CCCC3)[C@H]21` (racemic) [compound 14, 1-[(4aRS,6SR,8SR,8aRS)-4-Benzyl-6-hydroxy-8-(pyrrolidin-1-yl)decahydro-quinoxalin-1-yl]-2-(3,4-dichlorophenyl)ethan-1-one], the inhibition at 1 µM was 0% in series [1]; 0% in [4] (read-out: inhibition of the radioligand binding, μ Receptor); 11% in [11]. In series [9], this compound gave a fraction unbound of 0.075. In series [2], the “selectivity for κ receptor over μ, δ, σ1 and σ2 receptors” value is recorded as “high selectivity”. Besides, the Ki came to 0.599 ± 0.217 µM in series [2] ([3H]U-69,593, guinea pig brain membranes, with SEM n = 3, without SEM one experiment) and 7.9 µM in [3]. Besides, in series [10], the “compound remaining unchanged (metabolic stability)” value is reported as 92 ± 1%. In series [12], the logD was 1.72 ± 0.05.

A word on the inhibition: it is the change of the read-out against control, counted positive when it falls. Usually Ki stands for a dissociation constant, usually derived from enzyme kinetics or from competition with a known ligand. The term Kd denotes the free concentration of one partner at which half of the binding sites on the other are occupied at equilibrium, for simple one-to-one binding. By fraction unbound is commonly meant free concentration divided by total concentration. A lower fraction unbound goes with little free substance. In general, logD refers to lipophilicity at a set pH, counting ionised and neutral species. Read a low logD as lower lipophilicity.

Values taken from article PMC11817610, “Stereoselective Synthesis and Biological Evaluation of Perhydroquinoxaline-Based κ Receptor Agonists” (International Journal of Molecular Sciences, 2025).
